{
  "source": "patent US9029076B2",
  "about": "“Tissue preservation and fixation method” (George Mason Research Foundation, Inc., priority 2006, dated 2015)",
  "key": {"p38 T180/182": {"test_system": "p38 T180/182", "experiment": "RPA phosphoprotein level after 24 h storage of tumor needle samples in preservatives", "conditions": "24 h in preservative at 4° C., relative normalized RPA intensity", "description": "(§1) The RPA format, originated by the present inventors and collaborators (see, e.g., Paweletz et al. (2001) Oncogene 20, 1981-1989), immobilizes an individual test sample in a miniature dilution curve such that an array contains hundreds of different patient samples, treatments, or time points. In the RPA format, each array is incubated with one detection protein (e.g. anti-peptide antibody), and a single analyte endpoint is measured and directly compared across multiple samples. Briefly, the lysates are printed on glass backed nitrocellulose array slides (FAST Slides Whatman, Florham Park, N.J. or ONCYTE slides Grace BioLabs, Bend, Oreg.) using a robotic array printing device (GMS 417 arrayer (Affymetrix, Santa Clara, Calif. or Aushon 2470, Aushon Biosystems, Burlington, Mass. equipped with 125-500 μm pins). Each lysate is printed in a dilution curve representing neat, 1:2, 1:4, 1:8, 1:16 and negative control dilutions. The slides are stored with desiccant (Drierite, W. A. Hammond, Xenia, Ohio) at −20° C. prior to immunostaining.\n(§2) Immunostaining is performed on an automated slide stainer per manufacturer's instructions (Autostainer CSA kit, Dako, Carpinteria, Calif.). Each slide is incubated with a single primary antibody at room temperature for 30 minutes. Polyclonal primary antibodies can be, e.g.: GSK3α/β Tyr279/216 (Invitrogen-Biosource, Carlsbad, Calif.), BCL-2, HIF-1α (BD, Franklin Lakes, N.J.), 4EBP1, FKHR ser256, eIF4E, eIF4E ser209, eIF4G, eIF4G ser1108, IGFR-β, IRS-1, IRS-2, IRS-1 ser612, SGK, Bak, Bax, BAD, BAD ser112, BAD ser136, BAD ser155, B-Raf, mTOR, mTOR ser2448, p70S6 Thr389, p70S6 kinase, p70S6 ser371, S6 kinase ser240/244, Akt, Akt ser473, Akt Thr308, 4EBP1 ser65, 4EBP1 ser70, and 4EBP1 Thr37/46 (Cell Signaling Technology, Danvers, Mass.). A negative control slide is incubated with antibody diluent. Secondary antibody can be goat anti-rabbit IgG H+L (1:5000) (Vector Labs, Burlingame, Calif.).\n(§3) Each array is scanned, spot intensity analyzed, data normalized, and a standardized, single data value can be generated for each sample on the array (Image Quant v5.2, GE Healthcare, Piscataway, N.J.) or MicroVigene v2.8, Vigene Tech, Billerica, Mass.). Spot intensity is integrated over a fixed area. Local area background intensity is calculated for each spot with the unprinted adjacent slide background. […] The Ward method for two-way hierarchical clustering can be performed using JMP v5.0 (SAS Institute, Cary N.C.). Wilcoxon two-sample rank sum test can be used to compare values between two groups. P values less than 0.05 are considered significant. When one cannot assume a normal distribution of the variables, non-parametric methods are used. Kaplan-Meier (log-rank) survival estimates for univariate survival analysis can be used.\n(§4) Briefly, tumor tissues from gastrinoma/liver, mesothelioma and parathyroid tumors were sampled by five needle passes and placed into the preservatives listed in Table 5. […] Immediate lysis and denaturation of the cellular proteins were accomplished by standard Pierce Tissue Protein Extraction Buffer (T-PER), with additional SDS, denaturing reagents, and detergents. The cell samples were stored 24 h in the listed preservatives at 4° C. and then the listed phosphoprotein endpoints were measured. […] Some values dropped to zero while others are markedly elevated compared to the freshly lysed cell baseline. […] They were unable to stabilize the phosphorylation state of key signal proteins over a storage period of 24 hours, which is a typical time delay for cell or tissue shipment. Numbers in the table are relative normalized intensity values using the RPA technology described herein."}, "IRS-1 ser612": {"test_system": "IRS-1 ser612", "experiment": "RPA phosphoprotein level after 24 h storage of tumor needle samples in preservatives", "conditions": "24 h in preservative at 4° C., relative normalized RPA intensity", "description": "as §1, §2, §3, §4"}, "AKT ser473": {"test_system": "AKT ser473", "experiment": "RPA phosphoprotein level after 24 h storage of tumor needle samples in preservatives", "conditions": "24 h in preservative at 4° C., relative normalized RPA intensity", "description": "as §1, §2, §3, §4"}, "ERK T202/Y204": {"test_system": "ERK T202/Y204", "experiment": "RPA phosphoprotein level after 24 h storage of tumor needle samples in preservatives", "conditions": "24 h in preservative at 4° C., relative normalized RPA intensity", "description": "as §1, §2, §3, §4"}, "CC3 Asp175": {"test_system": "CC3 Asp175", "experiment": "RPA phosphoprotein level after 24 h storage of tumor needle samples in preservatives", "conditions": "24 h in preservative at 4° C., relative normalized RPA intensity", "description": "as §1, §2, §3, §4"}, "GSK3ab ser21/9": {"test_system": "GSK3ab ser21/9", "experiment": "RPA phosphoprotein level after 24 h storage of tumor needle samples in preservatives", "conditions": "24 h in preservative at 4° C., relative normalized RPA intensity", "description": "as §1, §2, §3, §4"}, "EGFR Y1148": {"test_system": "EGFR Y1148", "experiment": "RPA phosphoprotein level after 24 h storage of tumor needle samples in preservatives", "conditions": "24 h in preservative at 4° C., relative normalized RPA intensity", "description": "as §1, §2, §3, §4"}, "CREB ser133": {"test_system": "CREB ser133", "experiment": "RPA phosphoprotein level after 24 h storage of tumor needle samples in preservatives", "conditions": "24 h in preservative at 4° C., relative normalized RPA intensity", "description": "as §1, §2, §3, §4"}, "AKT Thr308": {"test_system": "AKT Thr308", "experiment": "RPA phosphoprotein level after 24 h storage of tumor needle samples in preservatives", "conditions": "24 h in preservative at 4° C., relative normalized RPA intensity", "description": "as §1, §2, §3, §4"}, "IKappa-Ba ser32": {"test_system": "IKappa-Ba ser32", "experiment": "RPA phosphoprotein level after 24 h storage of tumor needle samples in preservatives", "conditions": "24 h in preservative at 4° C., relative normalized RPA intensity", "description": "as §1, §2, §3, §4"}, "phosphoproteins [1]": {"test_system": "phosphoproteins", "conditions": "for phosphoprotein endpoints, room temperature shipping in fixative versus snap frozen: real time, room temperature shipping conditions, FIGS. 6A, 6B and 7"}, "phosphoproteins [2]": {"test_system": "phosphoproteins", "experiment": "Overall phosphoprotein preservation of FNA / tumor needle samples stored 24 h at 4° C.", "conditions": "compared to directly lysed cell baseline", "method": "Fine Needle Aspirate (FNA) samples were stored for 24 hours at 4° C. in each of the chemicals/chemical solutions. The cellular samples were further processed for reverse phase protein microarray analysis. […] Each set of 4 horizontal spots by 2 vertical spots represent an original and its replicate sample, printed on the array in two-fold dilutions, for each FNA sample. The dilution series represents undiluted, 1:2, 1:4 and 1:8 dilutions of each sample.\nA variety of types of tumor tissues were incubated in a series of conventional preservatives to determine if the preservatives were able to stabilize selected phosphoproteins."}, "[3]": {"conditions": "Gastrinoma/liver tumor, Lysis Buffer = frozen immediately after lysis"}, "[4]": {"conditions": "Parathyroid tumor, Lysis Buffer = frozen immediately after lysis"}},
  "data": [
    {"smiles": "CO", "note": "[Methanol]", "values": [
      {"measurement": "p38 T180/182 Normalized data", "setting": "p38 T180/182; [3]", "result": 76.09},
      {"measurement": "p38 T180/182 Normalized data", "setting": "p38 T180/182; Mesothelioma", "result": 53.36},
      {"measurement": "p38 T180/182 Normalized data", "setting": "p38 T180/182; [4]", "result": 34.09},
      {"measurement": "IRS-1 ser612 Normalized data", "setting": "IRS-1 ser612; [3]", "result": 65.97},
      {"measurement": "IRS-1 ser612 Normalized data", "setting": "IRS-1 ser612; Mesothelioma", "result": 37.33},
      {"measurement": "IRS-1 ser612 Normalized data", "setting": "IRS-1 ser612; [4]", "result": 23.51},
      {"measurement": "AKT ser473 Normalized data", "setting": "AKT ser473; [3]", "result": 4.15},
      {"measurement": "AKT ser473 Normalized data", "setting": "AKT ser473; Mesothelioma", "result": 11.14},
      {"measurement": "AKT ser473 Normalized data", "setting": "AKT ser473; [4]", "result": 11.06},
      {"measurement": "ERK T202/Y204 Normalized data", "setting": "ERK T202/Y204; [3]", "result": 46.47},
      {"measurement": "ERK T202/Y204 Normalized data", "setting": "ERK T202/Y204; Mesothelioma", "result": 18.87},
      {"measurement": "ERK T202/Y204 Normalized data", "setting": "ERK T202/Y204; [4]", "result": 28.54},
      {"measurement": "CC3 Asp175 Normalized data", "setting": "CC3 Asp175; [3]", "result": 37.64},
      {"measurement": "CC3 Asp175 Normalized data", "setting": "CC3 Asp175; Mesothelioma", "result": 16.93},
      {"measurement": "CC3 Asp175 Normalized data", "setting": "CC3 Asp175; [4]", "result": 14.80},
      {"measurement": "GSK3ab ser21/9 Normalized data", "setting": "GSK3ab ser21/9; [3]", "result": 33.59},
      {"measurement": "GSK3ab ser21/9 Normalized data", "setting": "GSK3ab ser21/9; Mesothelioma", "result": 66.02},
      {"measurement": "GSK3ab ser21/9 Normalized data", "setting": "GSK3ab ser21/9; [4]", "result": 53.28},
      {"measurement": "EGFR Y1148 Normalized data", "setting": "EGFR Y1148; [3]", "result": 81.50},
      {"measurement": "EGFR Y1148 Normalized data", "setting": "EGFR Y1148; Mesothelioma", "result": 63.00},
      {"measurement": "EGFR Y1148 Normalized data", "setting": "EGFR Y1148; [4]", "result": 53.41},
      {"measurement": "CREBser133 Normalized data", "setting": "CREB ser133; [3]", "result": 131.23},
      {"measurement": "CREBser133 Normalized data", "setting": "CREB ser133; Mesothelioma", "result": 114.37},
      {"measurement": "CREBser133 Normalized data", "setting": "CREB ser133; [4]", "result": 65.44},
      {"measurement": "AKT Thr308 Normalized data", "setting": "AKT Thr308; [3]", "result": 43.73},
      {"measurement": "AKT Thr308 Normalized data", "setting": "AKT Thr308; Mesothelioma", "result": 32.75},
      {"measurement": "AKT Thr308 Normalized data", "setting": "AKT Thr308; [4]", "result": 28.31},
      {"measurement": "IKappa-Ba ser32 Normalized data", "setting": "IKappa-Ba ser32; [3]", "result": 54.98},
      {"measurement": "IKappa-Ba ser32 Normalized data", "setting": "IKappa-Ba ser32; Mesothelioma", "result": 41.23},
      {"measurement": "IKappa-Ba ser32 Normalized data", "setting": "IKappa-Ba ser32; [4]", "result": 36.25}
    ]},
    {"smiles": "CCO", "note": "[ethanol:water, ethanol]", "values": [
      {"measurement": "phosphoprotein endpoints, room temperature shipping in fixative versus snap frozen", "setting": "phosphoproteins [1]", "result": "equivalence of the two methods"}
    ]},
    {"smiles": "CCO", "note": "[ethanol]", "values": [
      {"measurement": "preservation of phosphoproteins overall", "setting": "phosphoproteins [2]", "result": "do not adequately preserve the phosphoproteins"}
    ]},
    {"smiles": "CO", "note": "[methanol: water, methanol]", "values": [
      {"measurement": "RPA spot intensities, fixed versus frozen tissue", "setting": "phosphoproteins [1]; FIG. 6A", "result": "equivalent spot intensities"},
      {"measurement": "phosphoprotein endpoints, room temperature shipping in fixative versus snap frozen", "setting": "phosphoproteins [1]", "result": "equivalence of the two methods"}
    ]}
  ]
}
